Reference: paper PMC10447463, “Data-mining unveils structure–property–activity correlation of viral infectivity enhancing self-assembling peptides” (Nature Communications, 2023)
Where “and” joins values, the source holds several entries; their conditions need not be identical. Identical values can stand only once. Like-named read-outs stand apart in the source and are kept apart here.

What was measured:
[1] = system: HIV-1 infection of TZM-bl cells; assay: HIV-1 infectivity enhancement assay, β-galactosidase luminescence; assay type: cell-based; conditions: for Log10 Inf. rel. to EF-C: log10 of HIV-1 infection of TZM-bl cells relative to EF-C, Fig S15 source data, asymmetric std dev errors; for Rel-to EFC / n-fold to virus: Fig S8 panels B, D
[2] = assay type: physicochemical; conditions: STD prep
[3] = Zeta-potential measurement; assay type: physicochemical; conditions: for Zeta-pot. / mV: zeta potential of peptide, Fig S15 source data
Procedure, shortened: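 Peptides diluted from DMSO stock into PBS pH 7.4 to 1 mg/mL and aged 1 d at RT, then diluted into 1 mM aqueous KCl. Zeta potential derived from electrophoretic mobility via Smoluchowski; triplicates, averaged over two independent experiments.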

[4] = β-sheet content by ATR-FT-IR; assay type: physicochemical
Procedure, shortened: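 Conversion rate: fluorescamine fluorescence (ex 365/em 470 nm, 20 min RT) of 3 kDa filtrate versus unfiltered PNF, CR = 100 − 100 × filtrate/original intensity, triplicates. β-sheet content came from ATR FT-IR of lyophilized 1 mg/mL PNF powder, 64 scans.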

[5] = Feb2021, 1.3 µM value relative to virus only (0 µM)
[6] = Feb2021, Log10 of infectivity relative to EF-C
[7] = Feb2021, infectivity enhancement relative to EF-C
[8] = Feb2021, n-fold infectivity relative to EF-C
[9] = Feb2021, unrounded values of the 1.3 µM column
[10] = infectivity class (low / medium / high) of each library peptide, main list in c1-c6, same classes repeated in sub-lists of sequences containing the hydrophobicity/charge patterns P+,H0,P+,H0,P0,H0,P0, P+,H0,P0,H0,P0,H0,P0, P+,H0,P0,H0
[11] = category derived from the zeta potential
[12] = Feb2021, log10 of infectivity relative to EF-C
[13] = infectivity enhancement relative to EF-C
[14] = infectivity n-fold relative to virus alone
[15] = Feb2021, n-fold enhancement relative to EF-C
[16] = Feb2021 run, infectivity n-fold relative to virus alone
[17] = Feb2021 run, log10 of infectivity relative to EF-C
[18] = Feb2021 run, n-fold infectivity relative to EF-C
[19] = infectivity class (low / medium / high) of the peptide in the sequence-pattern analysis, Fig. S22-A4, class limits not given

Row | Substance | n-fold to virus (Feb2021) [1, 5] | Log10 of Rel to EFC (Feb2021) [1, 6] | Rel-to EFC (Feb-2021) [1, 7] | Rel-to EFC (Feb-2021) [1, 8] | Absolute Infectivity / RLU /s (Feb2021) [1, 9] [RLU /s] | infectivity [1, 10] | Log10 Inf. rel. to EF-C [1] | TEM: 1= fibrils, 0= aggregates (micelle), 0.5 = aggregates and fibrils, -1 = nothing obersved, STD prep [2] | Zeta category ( +1 = if > 4 mV;-1 = if < -4 mV; 0 = -4mV to 4 mV) [3] | Zeta category ( +1 = if > 4 mV;-1 = if < -4 mV; 0 = -4mV to 4 mV) [3, 11] | Zeta Pot. / mV ([3]; mean, Std Zeta in next column) [mV] | Zeta-pot. / mV [3] [mV] | FTIR ß-sheet content/ % ([4]; ATR-FT-IR) | Zeta Pot. / mV ([3]; mean, Std in separate column) [mV] | FTIR ß-sheet content/ % [4] [%] | Rel-to EFC [1, 13] | n-fold to virus [1, 14] | Rel-to EFC (Feb-2021) [1, 15] | n-fold to virus (Feb2021) [1, 16] | infectivity [1, 19] | other results
1 | CEFEFQFNMWQ [TM140] | 5.923 | -0.8509 | 0.141 | 0.141 | 2517 | medium | -0.8509 | 1 | -1 (-1 = if < -4 mV) | -1 (-1 = if < -4 mV) | -34.23 | -34.23 | 51% and 51.48% |  |  |  |  |  |  |  | 
2 | CEIEIQINMWQ [TM143] | 9.188 |  |  | 0.2187 | 12066.66667 | medium | -0.6602 | 0.5 | -1 (-1 = if < -4 mV) |  | -25.8 | -25.8 | 49.9% | -25.8 | 49.9 |  |  |  |  |  | Log10 of Rel to EFC (Feb2021) [1, 12]: -0.6602; Rel-to EFC (Feb-2021) ([1]; infectivity enhancement relative to EF-C (=1), Feb2021 run): 0.2187; n-fold to virus (Feb2021) ([1]; infectivity n-fold relative to virus only, Feb2021 run): 9.188; Log10 of Rel to EFC (Feb2021) ([1]; log10 of infectivity relative to EF-C, Feb2021 run): -0.6602
3 | CHLHLQL [CN9] | 4.127 |  |  | 0.09822 | 2934 | low | -1.008 | 0.5 | -1 (-1 = if < -4 mV) |  | -12.27 | -12.27 | 49.52% |  |  | 0.09822 | 4.127 |  |  |  | Log10 of Rel to EFC (Feb2021) [1, 12]: -1.008
4 | CKFKFQF [BL4] | 51.79 | 0.09083 |  | 1.233 | 20066.66667 |  | 0.09083 | 1 | 1 (+1 = if > 4 mV) |  | 19.73 | 19.73 | 47% and 47.43% | 19.73 | 47.43 | 1.233 | 51.79 | 1.233 | 51.79 | high | Log10 of Rel to EFC (Feb2021) [1, 17]: 0.09083; Rel-to EFC (Feb-2021) [1, 18]: 1.233; Zeta category ( +1 = if > 4 mV;-1 = if < -4 mV; 0 = -4mV to 4 mV) ([3]; category from zeta potential): 1 (+1 = if > 4 mV)
5 | CKFKFQFNM [BL3] | 52.19 | 0.09417 |  | 1.242 | 28183.33333 | high | 0.09417 | 1 | 1 (+1 = if > 4 mV) |  | 15.13 | 15.13 | 41% | 15.13 | 41 | 1.242 | 52.19 | 1.242 | 52.19 | high | Log10 of Rel to EFC (Feb2021) [1, 17]: 0.09417; Rel-to EFC (Feb-2021) [1, 18]: 1.242; Zeta category ( +1 = if > 4 mV;-1 = if < -4 mV; 0 = -4mV to 4 mV) ([3]; category from zeta potential): 1 (+1 = if > 4 mV)
6 | CKFKFQFNMWQ [BL2] | 48.74 | 0.06446 |  | 1.16 | 26320 | high | 0.06446 | 1 | 1 (+1 = if > 4 mV) |  | 17.03 | 17.03 | 47% and 47.05% | 17.03 | 47.05 |  |  | 1.16 | 48.74 | high | Log10 of Rel to EFC (Feb2021) [1, 17]: 0.06446; Rel-to EFC (Feb-2021) [1, 18]: 1.16; Zeta category ( +1 = if > 4 mV;-1 = if < -4 mV; 0 = -4mV to 4 mV) ([3]; category from zeta potential): 1 (+1 = if > 4 mV)
7 | CKFKFQFW [TM72] |  | -0.05512 | 0.8808 |  |  | high | -0.05512 |  |  | 1 (+1 = if > 4 mV) | 15.2 | 15.2 | 43% |  |  | 0.8808 | 37.01 |  |  | high | 
8 | CKFKQFF [CK15] |  | -2.171 | 0.00675 | 0.00675 |  | low | -2.171 | 0.5 | 1 (+1 = if > 4 mV) | 1 (+1 = if > 4 mV) | 11.56 | 11.56 | 45.41% | 11.56 | 45.41 | 0.00675 | 0.2836 |  | 0.2836 |  | Absolute Infectivity / RLU /s (Feb2021) ([1]; Feb2021, figures match the 1.3 µM column): 260 RLU /s; n-fold to virus (Feb2021) ([1]; Feb2021, infectivity relative to virus only): 0.2836; Log10 of Rel to EFC (Feb2021) [1, 17]: -2.171; Rel-to EFC (Feb-2021) [1, 18]: 0.00675; Zeta Pot. / mV [3]: 11.56 mV
9 | KIKIKIKIYYYY [JR7] |  | 0.1402 | 1.381 |  |  |  | 0.1402 |  |  | 1 (+1 = if > 4 mV) | 13.3 | 13.3 | 0% |  |  |  |  |  |  | high | 
10 | RGDSKIKIQIC [TM113 / RC11] |  | -0.2249 |  |  |  | medium | -0.2249 |  |  |  | 15.1 | 15.1 | 39% |  |  |  |  | 0.5957 |  |  | n-fold to virus (Feb2021) ([1]; Feb2021, infectivity relative to virus only (0 µM)): 25.03 n-fold; Zeta category ( +1 = if > 4 mV;-1 = if < -4 mV; 0 = -4mV to 4 mV) ([3]; category from zeta potential): 1 (+1 = if > 4 mV)
